According to patent US12370149B1, “Transdermal cannabidiol delivery device” (ZHI Technologies, Inc., priority 2024, dated 2025):

Experiment: Solubility of CBD in mineral oil
Format: physicochemical
Text: Cannabidiol content. As discussed above, the matrices and TTDs of the present disclosure are advantageously formulated with a “saturated-plus-excess” concentration of CBD. The solubility of CBD in mineral oil (and by extension a PIB/mineral oil blend since PIB and mineral oil have the same solubility) is 4% (w/w). The amount of CBD in the matrix should be at least twofold, e.g., at least threefold, at least fourfold, or at least fivefold more CBD than the maximum concentration of CBD that dissolves in the plasticizer (e.g., mineral oil). The amount of CBD in the matrix can be any amount from about 10% (w/w) to about 30% (w/w) of the matrix, for example about 12.0% (w/w), about 12.5% (w/w), about 13.0% (w/w), about 13.5% (w/w), about 14.0% (w/w), about 14.5% (w/w), about 15.0% (w/w), about 15.5% (w/w), about 16.0% (w/w), about 16.5% (w/w), about 17.0% (w/w), about 17.5% (w/w), about 18.0% (w/w), about 18.5% (w/w), about 19.0% (w/w), about 19.5% (w/w), about 20.0% (w/w), or about 20.5% (w/w) of the matrix. The amount of cannabinoids other than CBD should be less than about 10% (w/w), for example less than about 1% (w/w).

SMILES: C=C(C)[C@@H]1CCC(C)=C[C@H]1c1c(O)cc(CCCCC)cc1O [CBD, cannabidiol]
- solubility of CBD in mineral oil (and by extension a PIB/mineral oil blend): 4 % (w/w)
